# Reference: patent US20180353483A1, “PHARMACEUTICAL COMPOSITIONS AND METHODS FOR INDOLEAMINE, 2, 3-DIOXYGENASE INHIBITION AND INDICATIONS THEREFOR” (Incyte Corporation, priority 2015, published 2018)
# Read-outs that look alike come from different tables or passages of the source.
# Assay: Pharmacokinetics of Compound 1 in combination with MK-3475 in subjects with various cancers
# Format: in vivo, human
# Description: The subjects were not limited to a specific cancers and study include subjects with various cancers. […] One treatment cycle consisted of 21 days. […] Additional subjects were enrolled in a cohort to achieve the minimum of 3 evaluable subjects if dropouts or dose interruptions or reductions occur that result in a subject being non-evaluable for DLTs. […] An additional safety cohort was opened at 100 mg BID in parallel to 300 mg BID being tested. This may also be limited to subjects with melanoma, NSCLC, or specific cancer types from among those included in Phase 1. The RP2D was selected from the evaluated safety expansions.
# If a dose was missed by more than 4 hours, that dose was skipped and was resumed at the scheduled time.
# Pharmacokinetic samples were obtained at the visits of Cycle 1 Day 1, Cycle 1 Day 8 and Cycle 2 Day 1. […] The exact date and time of the PK blood draws were recorded in the eCRF along with the date and time of the last dose of study drug and details of the last meal preceding the blood draw.
# The planned PK time points were used for preliminary PK analyses.
# [1] = subjects with dose reduction before C4D1, 50 mg BID, C1D8, mean ± SD
smiles,measurement,setting,value
"NS(=O)(=O)NCCNc1nonc1C(=NO)Nc1ccc(F)c(Br)c1 [Compound 1, 4-({2-[(aminosulfonyl)amino]ethyl}amino)-N-(3-bromo-4-fluorophenyl)-N′-hydroxy-1,2,5-oxadiazole-3-carboximidamide]",AUC(0-t),"human, plasma, oral, 100 mg, Diagnosis DLBCL, first dose, geometric mean, read-out: AUC0-t",1.9 µM·h
same,Cmax,"human, plasma, oral, 100 mg, Diagnosis DLBCL, first dose, mean ± SD",732 ± 370 nM
same,tmax,"human, plasma, oral, 100 mg, Diagnosis DLBCL, first dose, median, read-out: tmax",3 h
same,Cmax,"human, plasma, oral, 100 mg, Diagnosis GU, first dose, geometric mean",878 nM
same,AUC(0-t),"human, plasma, oral, 100 mg, Diagnosis GU, first dose, geometric mean, read-out: AUC0-t",2.71 µM·h
same,Cmax,"human, plasma, oral, 100 mg, Diagnosis GU, first dose, mean ± SD",986 ± 492 nM
same,AUC(0-t),"human, plasma, oral, 100 mg, Diagnosis GU, first dose, mean ± SD, read-out: AUC0-t",2.96 ± 1.28 µM·h
same,AUC(0-t),"human, plasma, oral, 100 mg, Diagnosis MEL, first dose, geometric mean, read-out: AUC0-t",2.37 µM·h
same,Cmax,"human, plasma, oral, 100 mg, Diagnosis MEL, first dose, mean ± SD",870 ± 347 nM
same,AUC(0-t),"human, plasma, oral, 100 mg, Diagnosis MEL, first dose, mean ± SD, read-out: AUC0-t",2.48 ± 0.773 µM·h
same,Cmax,"human, plasma, oral, 100 mg, Diagnosis NSCLC PD-L1 High, first dose, geometric mean",878 nM
same,AUC(0-t),"human, plasma, oral, 100 mg, Diagnosis NSCLC PD-L1 High, first dose, geometric mean, read-out: AUC0-t",2.62 µM·h
same,Cmax,"human, plasma, oral, 100 mg, Diagnosis NSCLC PD-L1 High, first dose, mean ± SD",1020 ± 573 nM
same,AUC(0-t),"human, plasma, oral, 100 mg, Diagnosis NSCLC PD-L1 High, first dose, mean ± SD, read-out: AUC0-t",2.88 ± 1.3 µM·h
same,tmax,"human, plasma, oral, 100 mg, Diagnosis NSCLC PD-L1 High, first dose, median, read-out: tmax",1.5 h
same,Cmax,"human, plasma, oral, 100 mg, Diagnosis NSCLC PD-L1 Low/NE, first dose, geometric mean",857 nM
same,AUC(0-t),"human, plasma, oral, 100 mg, Diagnosis NSCLC PD-L1 Low/NE, first dose, geometric mean, read-out: AUC0-t",2.66 µM·h
same,AUC(0-t),"human, plasma, oral, 100 mg, Diagnosis NSCLC PD-L1 Low/NE, first dose, mean ± SD, read-out: AUC0-t",2.77 ± 0.839 µM·h
same,Cmax,"human, plasma, oral, 100 mg, Diagnosis OC, first dose, geometric mean",886 nM
same,AUC(0-t),"human, plasma, oral, 100 mg, Diagnosis OC, first dose, geometric mean, read-out: AUC0-t",2.99 µM·h
same,Cmax,"human, plasma, oral, 100 mg, Diagnosis OC, first dose, mean ± SD",967 ± 405 nM
same,AUC(0-t),"human, plasma, oral, 100 mg, Diagnosis OC, first dose, mean ± SD, read-out: AUC0-t",3.16 ± 1.1 µM·h
same,tmax,"human, plasma, oral, 100 mg, Diagnosis RCC, first dose, individual values of 2 subjects, read-out: tmax",3 h
same,Cmax,"human, plasma, oral, 100 mg, Diagnosis SCCHN, first dose, geometric mean",649 nM
same,AUC(0-t),"human, plasma, oral, 100 mg, Diagnosis SCCHN, first dose, geometric mean, read-out: AUC0-t",2.06 µM·h
same,Cmax,"human, plasma, oral, 100 mg, Diagnosis SCCHN, first dose, mean ± SD",769 ± 439 nM
same,Cmax,"human, plasma, oral, 100 mg, Diagnosis TNBC, first dose, geometric mean",898 nM
same,AUC(0-t),"human, plasma, oral, 100 mg, Diagnosis TNBC, first dose, geometric mean, read-out: AUC0-t",2.82 µM·h
same,Cmax,"human, plasma, oral, 100 mg, Diagnosis TNBC, first dose, mean ± SD",1030 ± 574 nM
same,AUC(0-t),"human, plasma, oral, 100 mg, Diagnosis TNBC, first dose, mean ± SD, read-out: AUC0-t",3.08 ± 1.39 µM·h
same,AUC(0-t),"human, plasma, oral, 100 mg, by dose, 100 mg BID, steady state C1D8, geometric mean, read-out: AUC0-12 h (converted)",3.57 µM·h
same,AUC(0-t),"human, plasma, oral, 100 mg, by dose, 100 mg BID, steady state C1D8, mean ± SD, read-out: AUC0-12 h (converted)",3.82 ± 1.37 µM·h
same,AUC(0-t),"human, plasma, oral, 100 mg, by dose, 100 mg, first dose, mean ± SD, read-out: AUC0-t",2.47 ± 0.861 µM·h
same,AUC(0-t),"human, plasma, oral, 300 mg, Cohort 6, 300 mg BID, steady state C1D8, geometric mean, read-out: AUC0-12 h (converted)",11.3 µM·h
same,AUC(0-t),"human, plasma, oral, 300 mg, Cohort 6, 300 mg BID, steady state C1D8, mean ± SD, read-out: AUC0-12 h (converted)",12.3 ± 6.09 µM·h
same,Cmax,"human, plasma, oral, 300 mg, Cohort 6, 300 mg, first dose, geometric mean",1790 nM
same,AUC(0-t),"human, plasma, oral, 300 mg, Cohort 6, 300 mg, first dose, geometric mean, read-out: AUC0-t",6.92 µM·h
same,Cmax,"human, plasma, oral, 300 mg, Cohort 6, 300 mg, first dose, mean ± SD",2220 ± 1720 nM
same,AUC(0-t),"human, plasma, oral, 300 mg, Cohort 6, 300 mg, first dose, mean ± SD, read-out: AUC0-t",7.47 ± 3.32 µM·h
same,AUC(0-t),"human, plasma, oral, 300 mg, Cohort 7, 300 mg BID, steady state C1D8, geometric mean, read-out: AUC0-12 h (converted)",11.3 µM·h
same,Cmax,"human, plasma, oral, 300 mg, Cohort 7, 300 mg BID, steady state C1D8, mean ± SD",2750 ± 1220 nM
same,AUC(0-t),"human, plasma, oral, 300 mg, Cohort 7, 300 mg BID, steady state C1D8, mean ± SD, read-out: AUC0-12 h (converted)",12.2 ± 5.92 µM·h
same,Cmax,"human, plasma, oral, 300 mg, Cohort 7, 300 mg, first dose, geometric mean",2170 nM
same,AUC(0-t),"human, plasma, oral, 300 mg, Cohort 7, 300 mg, first dose, geometric mean, read-out: AUC0-t",6.88 µM·h
same,Cmax,"human, plasma, oral, 300 mg, Cohort 7, 300 mg, first dose, mean ± SD",2330 ± 925 nM
same,AUC(0-t),"human, plasma, oral, 300 mg, Cohort 7, 300 mg, first dose, mean ± SD, read-out: AUC0-t",7.38 ± 2.86 µM·h
same,AUC(0-t),"human, plasma, oral, 300 mg, by dose, 300 mg BID, steady state C1D8, geometric mean, read-out: AUC0-12 h (converted)",11.3 µM·h
same,Cmax,"human, plasma, oral, 300 mg, by dose, 300 mg BID, steady state C1D8, mean ± SD",2740 ± 1190 nM
same,AUC(0-t),"human, plasma, oral, 300 mg, by dose, 300 mg BID, steady state C1D8, mean ± SD, read-out: AUC0-12 h (converted)",12.3 ± 5.81 µM·h
same,AUC(0-t),"human, plasma, oral, 300 mg, by dose, 300 mg, first dose, geometric mean, read-out: AUC0-t",6.89 µM·h
same,AUC(0-t),"human, plasma, oral, 300 mg, by dose, 300 mg, first dose, mean ± SD, read-out: AUC0-t",7.41 ± 2.95 µM·h
same,Cmax,"human, plasma, oral, 300 mg, subjects with dose reduction before C4D1, 300 mg BID, C1D8, geometric mean",3000 nM
same,AUC(0-t),"human, plasma, oral, 300 mg, subjects with dose reduction before C4D1, 300 mg BID, C1D8, geometric mean, read-out: AUC0-12 h (converted)",13.3 µM·h
same,Cmax,"human, plasma, oral, 300 mg, subjects with dose reduction before C4D1, 300 mg BID, C1D8, mean ± SD",3180 ± 1280 nM
same,AUC(0-t),"human, plasma, oral, 300 mg, subjects with dose reduction before C4D1, 300 mg BID, C1D8, mean ± SD, read-out: AUC0-12 h (converted)",14.6 ± 7.4 µM·h
same,dose proportionality of exposures,non-compartmental analysis,approximate dose-proportional exposures
same,AUC0-12 h,"subjects with dose reduction before C4D1, 50 mg BID, C1D8, geometric mean",(2.29) μM * h
same,AUC0-12 h,[1],2.41 ± 0.980 µM·h
same,CL/F,[1],52.0 ± 17.1 L/h
same,tmax,"subjects with dose reduction before C4D1, 50 mg BID, C1D8, median",2.00 h
same,CL/F,"subjects with dose reduction before C4D1, 300 mg BID, C1D8, mean ± SD",55.4 ± 23.0 L/h
same,tmax,"subjects with dose reduction before C4D1, 300 mg BID, C1D8, median",2.00 h
